According to patent US20260224582A1, “Heterobicyclic amides as inhibitors of CD38” (Cerevance, Inc., priority 2022, published 2026):

Columns and labels:
[1] = target: T1, Recombinant human CD38 (Homo sapiens, UniProt P28907); experiment: Human CD38 hydrolase assay (fluorescence-based, ε-NAD substrate); assay type: biochemical; settings: recombinant human CD38 0.8 nM, 4 μM ε-NAD, 30 min preincubation at 25° C.
T1 sequence (P28907 1-300): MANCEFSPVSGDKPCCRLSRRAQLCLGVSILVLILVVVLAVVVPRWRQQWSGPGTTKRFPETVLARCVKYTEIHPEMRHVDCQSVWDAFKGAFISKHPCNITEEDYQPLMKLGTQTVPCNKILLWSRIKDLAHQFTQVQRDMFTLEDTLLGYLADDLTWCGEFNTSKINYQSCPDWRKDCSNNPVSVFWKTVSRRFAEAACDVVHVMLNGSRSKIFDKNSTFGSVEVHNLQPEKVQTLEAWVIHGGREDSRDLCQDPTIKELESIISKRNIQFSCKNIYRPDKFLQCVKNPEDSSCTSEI
Method: The ability of test compounds to inhibit human CD38 hydrolase activity was measured in a fluorescence-based assay using non-physiological NAD^+ substrate analogue 1,N^6-etheno NAD^+ (ε-NAD). Recombinant human CD38 (0.8 nM) was preincubated with test compounds in 384-well black microplates for 30 min at 25° C. in PBS (—Ca^2+/Mg^2+) containing 0.005% BSA (pH 7.4). CD38 hydrolase activity was initiated by addition of 4 μM ε-NAD, which yields the fluorescent product 1,N^6-etheno ADP-ribose. Formation of fluorescent product was followed using ClarioStar Plus (BMG) microplate reader by reading fluorescence (excitation λ=300 nm; emission λ=410 nm) at two time points, one immediately after substrate addition (t=0) and one at 10 min (t=10). Data was analysed by subtracting the values detected at t=0 from t=10 to correct for variation in baseline fluorescence. Fluorescence values were converted to percent inhibition using the average of high signal (CD38 and ε-NAD) and low signal (CD38 and ε-NAD in the presence of a tool CD38 inhibitor) control wells. IC50 values were determined from a 10-point, half log concentration response curve with a four-parameter logistic equation.

[2] = target: T2, Recombinant mouse CD38 (Mus musculus, UniProt P56528); experiment: Mouse CD38 hydrolase assay (fluorescence-based, ε-NAD substrate); assay type: biochemical; settings: recombinant mouse CD38 0.4 nM, 12 μM ε-NAD, 30 min preincubation at 25° C.
T2 sequence (P56528 1-304): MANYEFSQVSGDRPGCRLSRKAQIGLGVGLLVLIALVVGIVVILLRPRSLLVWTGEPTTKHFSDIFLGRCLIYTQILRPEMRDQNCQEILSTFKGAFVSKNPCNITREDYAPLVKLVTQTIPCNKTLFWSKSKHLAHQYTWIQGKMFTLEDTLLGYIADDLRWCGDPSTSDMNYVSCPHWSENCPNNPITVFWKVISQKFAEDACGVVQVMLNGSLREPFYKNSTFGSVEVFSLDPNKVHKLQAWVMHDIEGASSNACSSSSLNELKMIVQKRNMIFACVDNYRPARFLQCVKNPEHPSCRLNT
Method: The ability of test compounds to inhibit mouse CD38 hydrolase activity was measured in a fluorescence-based assay using non-physiological NAD^+ substrate analogue 1,N^6-etheno NAD^+ (&-NAD). Recombinant mouse CD38 (0.4 nM) was preincubated with test compounds in 384-well black microplates for 30 min at 25° C. in PBS (—Ca^2+/Mg^2+) containing 0.005% BSA (pH 7.4). CD38 hydrolase activity was initiated by addition of 12 μM ε-NAD, which yields the fluorescent product 1,N^6-etheno ADP-ribose. Formation of fluorescent product was followed using ClarioStar Plus (BMG) microplate reader by reading fluorescence (excitation λ=300 nm; emission λ=410 nm) at two time points, one immediately after substrate addition (t=0) and one at 6 min (t=6).
Data was analysed by subtracting the values detected at t=0 from t=6 to correct for variation in baseline fluorescence. Fluorescence values were converted to percent inhibition using the average of high signal (CD38 and ε-NAD) and low signal (CD38 and ε-NAD in the presence of a tool CD38 inhibitor) control wells. IC50 values were determined from a 10-point, halflog concentration response curve with a four-parameter logistic equation.

| IC50 [1] [nM] | IC50 [2] [nM] | SMILES |
| --- | --- | --- |
| ≤ 40 | ≤ 40 | O=C(NC1CC2(CC(NCC(F)(F)F)C2)C1)c1nc(-n2ccnc2)nn2cccc12 (single isomer, unassigned) [Example 9, 2-(1H-imidazol-1-yl)-N-(6-((2,2,2-trifluoroethyl)amino)spiro[3.3]heptan-2-yl)pyrrolo[2,1-f][1,2,4]triazine-4-carboxamide] |
| ≤ 40 | ≤ 40 | O=C(NC1CC2(CC(NCC(F)(F)F)C2)C1)c1nc(-n2ccnc2)nn2cccc12 (single isomer, unassigned) [Example 10, 2-(1H-imidazol-1-yl)-N-(6-((2,2,2-trifluoroethyl)amino)spiro[3.3]heptan-2-yl)pyrrolo[2,1-f][1,2,4]triazine-4-carboxamide] |
| ≤ 100 | ≤ 40 | O=C(NC1CCOCC1)c1nc(-n2ccnc2)cc2nccn12 [Example 1, 7-(1H-imidazol-1-yl)-N-(tetrahydro-2H-pyran-4-yl) imidazo[1,2-c]pyrimidine-5-carboxamide] |
| ≤ 40 | ≤ 40 | O=C(N[C@H]1CC[C@H](NCC(F)(F)F)CC1)c1nc(-n2ccnc2)cc2nccn12 [Example 2, 7-(1H-imidazol-1-yl)-N-((1r,4r)-4-((2,2,2-trifluoroethyl)amino)cyclohexyl) imidazo[1,2-c]pyrimidine-5-carboxamide] |
| ≤ 40 | ≤ 40 | O=C(NC1CCOCC1)c1nc(-n2ccnc2)nc2ncccc12 [Example 3, 2-(1H-imidazol-1-yl)-N-(tetrahydro-2H-pyran-4-yl)pyrido[2,3-d]pyrimidine-4-carboxamide] |
| ≤ 1000 | ≤ 40 | O=C(N[C@H]1CC[C@H](NCC(F)(F)F)CC1)c1nc(-c2cncs2)cn2cccc12 [Example 5, 3-(thiazol-5-yl)-N-((1r,4r)-4-((2,2,2-trifluoroethyl)amino)cyclohexyl)pyrrolo[1,2-a]pyrazine-1-carboxamide] |
| ≤ 10000 |  | O=C(N[C@H]1CC[C@H](NCC(F)(F)F)CC1)c1cc2cccnc2c(-n2ccnc2)n1 [Example 6, 8-(1H-imidazol-1-yl)-N-((1r,4r)-4-((2,2,2-trifluoroethyl)amino)cyclohexyl)-1,7-naphthyridine-6-carboxamide] |
| ≤ 1000 | ≤ 40 | O=C(N[C@H]1CC[C@H](NCC(F)(F)F)CC1)c1cc2cccnc2c(-c2cncs2)n1 [Example 7, 8-(thiazol-5-yl)-N-((1r,4r)-4-((2,2,2-trifluoroethyl)amino)cyclohexyl)-1,7-naphthyridine-6-carboxamide] |
| ≤ 40 | ≤ 40 | O=C(NC1CCC2(CC1)CN(CC(F)(F)F)C2)c1nc(-n2ccnc2)nn2cccc12 [Example 8, 2-(1H-imidazol-1-yl)-N-(2-(2,2,2-trifluoroethyl)-2-azaspiro[3.5]nonan-7-yl)pyrrolo[2,1-f][1,2,4]triazine-4-carboxamide] |
| ≤ 40 | ≤ 40 | O=C(N[C@H]1C[C@H](NCC(F)(F)F)C1)c1nc(-n2ccnc2)nn2cccc12 [Example 11, 2-(1H-imidazol-1-yl)-N-((1r,3r)-3-((2,2,2-trifluoroethyl)amino)cyclobutyl)pyrrolo[2,1-f][1,2,4]triazine-4-carboxamide] |
| ≤ 40 | ≤ 40 | O=C(N[C@H]1CC[C@H](NCC(F)(F)F)CC1)c1cn2cccc2c(-n2ccnc2)n1 [Example 15, 1-(1H-imidazol-1-yl)-N-((1r,4r)-4-((2,2,2-trifluoroethyl)amino)cyclohexyl)pyrrolo[1,2-a]pyrazine-3-carboxamide] |
| ≤ 1000 | ≤ 40 | O=C(N[C@H]1CC[C@H](NCC(F)(F)F)CC1)c1nc(-n2ccnc2)c2cccn2n1 [Example 16, 4-(1H-imidazol-1-yl)-N-((1r,4r)-4-((2,2,2-trifluoroethyl)amino)cyclohexyl)pyrrolo[2,1-f][1,2,4]triazine-2-carboxamide] |
| ≤ 40 | ≤ 40 | Cn1cncc1-c1nc(C(=O)N[C@H]2CC[C@H](NCC(F)(F)F)CC2)c2cccn2n1 [Example 17, 2-(1-methyl-1H-imidazol-5-yl)-N-((1r,4r)-4-((2,2,2-trifluoroethyl)amino)cyclohexyl)pyrrolo[2,1-f][1,2,4]triazine-4-carboxamide] |
| ≤ 40 | ≤ 40 | O=C(N[C@H]1CC[C@H](NCC(F)(F)F)CC1)c1nc(-c2cncn2CCO)nn2cccc12 [Example 18, 2-(1-(2-hydroxyethyl)-1H-imidazol-5-yl)-N-((1r,4r)-4-((2,2,2-trifluoroethyl)amino)cyclohexyl)pyrrolo[2,1-f][1,2,4]triazine-4-carboxamide] |
| ≤ 1000 | ≤ 40 | O=C(N[C@H]1CC[C@H](N2CC[C@H](F)C2)CC1)c1cn2cccc2c(-n2ccnc2)n1 [Example 22, N-((1S,4r)-4-((S)-3-fluoropyrrolidin-1-yl)cyclohexyl)-1-(1H-imidazol-1-yl)pyrrolo[1,2-a]pyrazine-3-carboxamide] |
| ≤ 40 | ≤ 40 | O=C(N[C@H]1CC[C@H](N2CC[C@H](O)C2)CC1)c1nc(-n2ccnc2)nn2cccc12 [Example 23, N-((1S,4r)-4-((S)-3-hydroxypyrrolidin-1-yl)cyclohexyl)-2-(1H-imidazol-1-yl)pyrrolo[2,1-f][1,2,4]triazine-4-carboxamide] |
| ≤ 1000 | ≤ 40 | O=C(N[C@H]1CC[C@H](N2CC[C@@H](F)C2)CC1)c1cn2cccc2c(-n2ccnc2)n1 [Example 24, N-((1R,4r)-4-((R)-3-fluoropyrrolidin-1-yl)cyclohexyl)-1-(1H-imidazol-1-yl)pyrrolo[1,2-a]pyrazine-3-carboxamide] |
| ≤ 1000 | ≤ 40 | O=C(N[C@H]1CC[C@H](N2CC[C@H](F)C2)CC1)c1cn2ncnc2c(-n2ccnc2)n1 [Example 25, N-((1S,4r)-4-((S)-3-fluoropyrrolidin-1-yl)cyclohexyl)-8-(1H-imidazol-1-yl)-[1,2,4]triazolo[1,5-a]pyrazine-6-carboxamide] |
| ≤ 100 | ≤ 40 | O=C(N[C@H]1CC[C@H](N2CC[C@@H](F)C2)CC1)c1cn2ncnc2c(-n2ccnc2)n1 [Example 26, N-((1R,4r)-4-((R)-3-fluoropyrrolidin-1-yl)cyclohexyl)-8-(1H-imidazol-1-yl)-[1,2,4]triazolo[1,5-a]pyrazine-6-carboxamide] |
| ≤ 1000 |  | O=C(N[C@H]1CC[C@H](N2CCC(F)(F)C2)CC1)c1cn2nccc2c(-n2ccnc2)n1 [Example 34, N-((1r,4r)-4-(3,3-difluoropyrrolidin-1-yl)cyclohexyl)-4-(1H-imidazol-1-yl)pyrazolo[1,5-a]pyrazine-6-carboxamide] |
| ≤ 40 |  | O=C(N[C@H]1CC[C@H](N2CCCC2)CC1)c1nc(-n2ccnc2)nn2cccc12 [Example 43, 2-(1H-imidazol-1-yl)-N-((1r,4r)-4-(pyrrolidin-1-yl)cyclohexyl)pyrrolo[2,1-f][1,2,4]triazine-4-carboxamide] |
| ≤ 1000 |  | O=C(N[C@H]1CC[C@H](N2CCOCC2)CC1)c1cn2ncnc2c(-n2ccnc2)n1 [Example 49, 8-(1H-imidazol-1-yl)-N-((1r,4r)-4-morpholinocyclohexyl)-[1,2,4]triazolo[1,5-a]pyrazine-6-carboxamide] |
| ≤ 1000 |  | O=C(N[C@H]1CC[C@H](NCC(F)(F)F)CC1)c1cc2ncnn2c(-n2ccnc2)n1 [Example 60, 5-(1H-imidazol-1-yl)-N-((1r,4r)-4-((2,2,2-trifluoroethyl)amino)cyclohexyl)-[1,2,4]triazolo[1,5-c]pyrimidine-7-carboxamide] |
